Source: patent publication US10294229B2, “Heteroaryl substituted aminopyridine compounds” (BRISTOL-MYERS SQUIBB COMPANY, priority 2015, dated 2019)

Biological target: IRAK4 (Homo sapiens (Human), UniProt Q9NWZ3)
Experiment: IRAK4 Inhibition Assay
Type: biochemical
Details: ATP 500 μM; IRAK4 0.6 nM
Procedure: The assays were performed in U-bottom 384-well plates. The final assay volume was 30 μL prepared from 15 μL additions of enzyme and substrates (fluoresceinated peptide and ATP) and test compounds in assay buffer (20 mM HEPES pH 7.2, 10 mM MgCl2, 0.015% Brij 35 and 4 mM DTT). The reaction was initiated by the combination of IRAK4 with substrates and test compounds. The reaction mixture was incubated at room temperature for 60 min. and terminated by adding 45 μL of 35 mM EDTA to each sample. The reaction mixture was analyzed on the Caliper LABCHIP® 3000 (Caliper, Hopkinton, Mass.) by electrophoretic separation of the fluorescent substrate and phosphorylated product. Inhibition data were calculated by comparison to no enzyme control reactions for 100% inhibition and vehicle-only reactions for 0% inhibition. The final concentrations of reagents in the assays are ATP, 500 μM; FL-IPTSPITTTYFFFKKK peptide 1.5 μM; IRAK4, 0.6 nM; and DMSO, 1.6%.

IRAK4, sequence (Q9NWZ3 whole entry, species assumed): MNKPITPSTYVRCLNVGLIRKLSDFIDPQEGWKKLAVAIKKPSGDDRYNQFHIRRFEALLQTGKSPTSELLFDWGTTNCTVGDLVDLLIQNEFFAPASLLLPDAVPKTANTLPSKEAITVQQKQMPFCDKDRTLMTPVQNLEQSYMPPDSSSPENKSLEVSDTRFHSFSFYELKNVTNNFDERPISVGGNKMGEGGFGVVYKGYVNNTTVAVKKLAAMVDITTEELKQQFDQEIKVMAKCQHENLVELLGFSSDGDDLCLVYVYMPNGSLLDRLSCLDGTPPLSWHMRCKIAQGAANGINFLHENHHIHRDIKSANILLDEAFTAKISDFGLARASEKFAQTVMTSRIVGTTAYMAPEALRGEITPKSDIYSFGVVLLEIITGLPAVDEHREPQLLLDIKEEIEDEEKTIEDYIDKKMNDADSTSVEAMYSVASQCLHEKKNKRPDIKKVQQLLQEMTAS

Row | Structure (SMILES) | IC50 [nM]
1 | CC(C)Nc1cc(-n2ncc3cc(C#N)cnc32)ncc1-c1cn(Cc2ccccc2)cn1 [Example 230, 1-(5-(1-benzyl-1H-imidazol-4-yl)-4-(isopropylamino)pyridin-2-yl)-1H-pyrazolo[3,4-b]pyridine-5-carbonitrile] | 27
2 | Cc1nc2cc(Cn3cc(-c4cnc(-n5ncc6cc(C#N)cnc65)cc4NC(C)C)nn3)ccc2s1 [Example 106, 1-(4-(isopropylamino)-5-(1-((2-methylbenzo[d]thiazol-5-yl)methyl)-1H-1,2,3-triazol-4-yl)pyridin-2-yl)-1H-pyrazolo[3,4-b]pyridine-5-carbonitrile] | 321
3 | CC(C)Nc1cc(-n2ncc3cc(C#N)cnc32)ncc1-n1cc(CC(C)(C)O)nn1 [Example 306, 1-(5-(4-(2-hydroxy-2-methylpropyl)-1H-1,2,3-triazol-1-yl)-4-(isopropylamino)pyridin-2-yl)-1H-pyrazolo[3,4-b]pyridine-5-carbonitrile] | 56
4 | CC(C)Nc1cc(-n2ncc3cc(C#N)cnc32)ncc1-n1cc(CNC(N)=O)nn1 [Example 313, 1-((1-(6-(5-cyano-1H-pyrazolo[3,4-b]pyridin-1-yl)-4-(isopropylamino)pyridin-3-yl)-1H-1,2,3-triazol-4-yl)methyl)urea] | 115
5 | CC(C)Nc1cc(-n2ncc3cc(C#N)cnc32)ncc1-c1cn(C[C@H](C)CO)cn1 [Example 228, (S)-1-(5-(1-(3-hydroxy-2-methylpropyl)-1H-imidazol-4-yl)-4-(isopropylamino)pyridin-2-yl)-1H-pyrazolo[3,4-b]pyridine-5-carbonitrile] | 19
6 | CCCc1cn(-c2cnc(-n3cnc4cc(C#N)cnc43)cc2NC2COC2)nn1 [Example 277, 3-(4-(oxetan-3-ylamino)-5-(4-propyl-1H-1,2,3-triazol-1-yl)pyridin-2-yl)-3H-imidazo[4,5-b]pyridine-6-carbonitrile] | 87
7 | CC(C)Nc1cc(-n2ncc3cc(C#N)cnc32)ncc1-c1cnn(C(F)F)c1 [Example 260, 1-(5-(1-(difluoromethyl)-1H-pyrazol-4-yl)-4-(isopropylamino)pyridin-2-yl)-1H-pyrazolo[3,4-b]pyridine-5-carbonitrile] | 146
8 | CC(C)Nc1cc(-n2ncc3cc(C#N)cnc32)ncc1-c1cnn(CCO)c1 [Example 252, 1-(5-(1-(2-hydroxyethyl)-1H-pyrazol-4-yl)-4-(isopropylamino)pyridin-2-yl)-1H-pyrazolo[3,4-b]pyridine-5-carbonitrile] | 119
9 | CCCn1cc(-c2cnc(-n3cnc4cc(C#N)cnc43)cc2NCC)nn1 [Example 55, 3-(4-(ethylamino)-5-(1-propyl-1H-1,2,3-triazol-4-yl)pyridin-2-yl)-3H-imidazo[4,5-b]pyridine-6-carbonitrile] | 8
10 | CC(C)Nc1cc(-n2ncc3cc(C#N)cnc32)ncc1-n1cc(CN2CCOCC2)nn1 [Example 301, 1-(4-(isopropylamino)-5-(4-(morpholinomethyl)-1H-1,2,3-triazol-1-yl)pyridin-2-yl)-1H-pyrazolo[3,4-b]pyridine-5-carbonitrile] | 22
11 | COC(=O)N1CC[C@@H](n2cc(-c3cnc(-n4ncc5cc(C#N)cnc54)cc3NC(C)C)nn2)[C@H](O)C1 (single isomer, unassigned) [Example 205] | 5
12 | CC(C)Nc1cc(-n2ncc3cc(C#N)cnc32)ncc1-n1cc(Cc2ccccc2)cn1 [Example 243, 1-(5-(4-benzyl-1H-pyrazol-1-yl)-4-(isopropylamino)pyridin-2-yl)-1H-pyrazolo[3,4-b]pyridine-5-carbonitrile] | 62
13 | CCCn1cc(-c2cnc(-n3ncc4cc(C#N)cnc43)cc2NC(C)C)cn1 [Example 261, 1-(4-(isopropylamino)-5-(1-propyl-1H-pyrazol-4-yl)pyridin-2-yl)-1H-pyrazolo[3,4-b]pyridine-5-carbonitrile] | 29
14 | CCCc1cn(-c2cnc(-n3ncc4cncnc43)cc2Nc2cnn(CC(F)F)c2)nn1 [Example 271, N-(1-(2,2-difluoroethyl)-1H-pyrazol-4-yl)-5-(4-propyl-1H-1,2,3-triazol-1-yl)-2-(1H-pyrazolo[3,4-d]pyrimidin-1-yl)pyridin-4-amine] | 108

Further compounds by falling IC50, results first:

Row | IC50 [nM] | Structure (SMILES)
15 | 302 | CC(C)Nc1cc(-n2ncc3cc(C(N)=O)cnc32)ncc1-c1cn([C@@H]2CCNC[C@@H]2O)nn1 [Example 187, 1-(5-(1-((3S,4R)-3-hydroxypiperidin-4-yl)-1H-1,2,3-triazol-4-yl)-4-(isopropylamino)pyridin-2-yl)-1H-pyrazolo[3,4-b]pyridine-5-carboxamide]
16 | 244 | COc1cc(OC)cc(-c2cn(-c3cnc(-n4ncc5cc(C#N)cnc54)cc3NC(C)C)nn2)c1 [Example 316, 1-(5-(4-(3,5-dimethoxyphenyl)-1H-1,2,3-triazol-1-yl)-4-(isopropylamino)pyridin-2-yl)-1H-pyrazolo[3,4-b]pyridine-5-carbonitrile]
17 | 43 | CC(C)Nc1cc(-n2cnc3cc(C#N)cnc32)ncc1-c1cn(CC(O)Cc2ccccc2)nn1 (single isomer, unassigned) [Example 78, 3-(5-(1-(2-hydroxy-3-phenylpropyl)-1H-1,2,3-triazol-4-yl)-4-(isopropylamino)pyridin-2-yl)-3H-imidazo[4,5-b]pyridine-6-carbonitrile]
18 | 40 | CCNc1cc(-n2ncc3cc(C#N)cnc32)ncc1-c1cn(C[C@H](C)O)nn1 [Example 71, (S)-1-(4-(ethylamino)-5-(1-(2-hydroxypropyl)-1H-1,2,3-triazol-4-yl)pyridin-2-yl)-1H-pyrazolo[3,4-b]pyridine-5-carbonitrile]
19 | 29 | CC(F)Cc1cn(-c2cnc(-n3ncc4cc(C#N)cnc43)cc2NC(C)C)nn1 (single isomer, unassigned) [Example 292, 1-(5-(4-(2-fluoropropyl)-1H-1,2,3-triazol-1-yl)-4-(isopropylamino)pyridin-2-yl)-1H-pyrazolo[3,4-b]pyridine-5-carbonitrile]
20 | 28 | CC(C)Nc1cc(-n2ncc3cc(C#N)cnc32)ncc1-n1cc(-c2ccncc2)nn1 [Example 326, 1-(4-(isopropylamino)-5-(4-(pyridin-4-yl)-1H-1,2,3-triazol-1-yl)pyridin-2-yl)-1H-pyrazolo [3,4-b]pyridine-5-carbonitrile]
21 | 27 | COc1ccc(OCC(O)Cn2cc(-c3cnc(-n4ncc5cc(C#N)cnc54)cc3NC(C)C)nn2)cc1 (stereo not drawn) [Example 136, 1-(5-(1-(2-hydroxy-3-(4-methoxyphenoxy)propyl)-1H-1,2,3-triazol-4-yl)-4-(isopropylamino)pyridin-2-yl)-1H-pyrazolo[3,4-b]pyridine-5-carbonitrile]
22 | 25 | CC(F)Cc1cn(-c2cnc(-n3cnc4cc(C#N)cnc43)cc2NC(C)C)nn1 (single isomer, unassigned) [Example 290, 3-(5-(4-(2-fluoropropyl)-1H-1,2,3-triazol-1-yl)-4-(isopropylamino)pyridin-2-yl)-3H-imidazo[4,5-b]pyridine-6-carbonitrile]
23 | 24 | CC(C)Nc1cc(-n2ncc3cc(C#N)cnc32)ncc1-c1cn(C[C@@H](N)Cc2ccccc2)nn1 [Example 168, (S)-1-(5-(1-(2-amino-3-phenylpropyl)-1H-1,2,3-triazol-4-yl)-4-(isopropylamino)pyridin-2-yl)-1H-pyrazolo[3,4-b]pyridine-5-carbonitrile]
24 | 16 | CC(C)Nc1cc(-n2ncc3cc(Cl)cnc32)ncc1-c1cn(CC2CC2)nn1 [Example 27, 2-(5-chloro-1H-pyrazolo [3,4-b]pyridin-1-yl)-5-(1-(cyclopropylmethyl)-1H-1,2,3-triazol-4-yl)-N-isopropylpyridin-4-amine]
25 | 7 | CCCn1cc(-c2cnc(-n3cnc4cc(C#N)cnc43)cc2Nc2cnn(CC(F)F)c2)nn1 [Example 61, 3-(4-((1-(2,2-difluoroethyl)-1H-pyrazol-4-yl)amino)-5-(1-propyl-1H-1,2,3-triazol-4-yl)pyridin-2-yl)-3H-imidazo[4,5-b]pyridine-6-carbonitrile]
26 | 7 | CC(C)Nc1cc(-n2ccc3cncnc32)ncc1-c1cn(Cc2cc(=O)[nH]c(=O)[nH]2)nn1 [Example 8, 6-((4-(4-(isopropylamino)-6-(7H-pyrrolo[2,3-d]pyrimidin-7-yl)pyridin-3-yl)-1H-1,2,3-triazol-1-yl)methyl)pyrimidine-2,4(1H,3H)-dione]
27 | 5 | CC(C)Nc1cc(-n2ncc3cc(C#N)cnc32)ncc1-c1cn(CC(=O)N2CCOCC2)nn1 [Example 101, 1-(4-(isopropylamino)-5-(1-(2-morpholino-2-oxoethyl)-1H-1,2,3-triazol-4-yl)pyridin-2-yl)-1H-pyrazolo[3,4-b]pyridine-5-carbonitrile]
28 | 5 | CC(C)Nc1cc(-n2ncc3cc(C#N)cnc32)ncc1-c1cn([C@@H]2CCN(C(=O)C(C)(C)C)C[C@H]2O)nn1 (single isomer, unassigned) [Example 200]
29 | 3 | CCCn1cc(-c2cnc(-n3ncc4cc(C#N)c(N)nc43)cc2NC2CCOCC2)nn1 [Example 51, 6-amino-1-(5-(1-propyl-1H-1,2,3-triazol-4-yl)-4-((tetrahydro-2H-pyran-4-yl)amino)pyridin-2-yl)-1H-pyrazolo[3,4-b]pyridine-5-carbonitrile]
30 | 3 | CC(C)Nc1cc(-n2cnc3cc(C#N)cnc32)ncc1-c1cn(C2CCOCC2)nn1 [Example 24, 3-(4-(isopropylamino)-5-(1-(tetrahydro-2H-pyran-4-yl)-1H-1,2,3-triazol-4-yl)pyridin-2-yl)-3H-imidazo[4,5-b]pyridine-6-carbonitrile]
